# Results as given in patent US20170275287A1, “NOVEL N2, N4, N7, 6-TETRASUBSTITUTED PTERIDINE-2,4,7-TRIAMINE AND 2, 4, 6, 7-TETRASUBSTITUTED PTERIDINE COMPOUNDS AND METHODS OF SYNTHESIS AND USE THEREOF” (Janus Biotherapeutics, Inc., priority 2014, published 2017).
# Biological target: T1, TLR9 (Homo sapiens, UniProt Q9NR96)
# T1 construct: PBMCs were isolated from unpurified buffy coat from healthy human donors; host or cells: primary human PBMCs
# T1 sequence (Q9NR96 26-1032): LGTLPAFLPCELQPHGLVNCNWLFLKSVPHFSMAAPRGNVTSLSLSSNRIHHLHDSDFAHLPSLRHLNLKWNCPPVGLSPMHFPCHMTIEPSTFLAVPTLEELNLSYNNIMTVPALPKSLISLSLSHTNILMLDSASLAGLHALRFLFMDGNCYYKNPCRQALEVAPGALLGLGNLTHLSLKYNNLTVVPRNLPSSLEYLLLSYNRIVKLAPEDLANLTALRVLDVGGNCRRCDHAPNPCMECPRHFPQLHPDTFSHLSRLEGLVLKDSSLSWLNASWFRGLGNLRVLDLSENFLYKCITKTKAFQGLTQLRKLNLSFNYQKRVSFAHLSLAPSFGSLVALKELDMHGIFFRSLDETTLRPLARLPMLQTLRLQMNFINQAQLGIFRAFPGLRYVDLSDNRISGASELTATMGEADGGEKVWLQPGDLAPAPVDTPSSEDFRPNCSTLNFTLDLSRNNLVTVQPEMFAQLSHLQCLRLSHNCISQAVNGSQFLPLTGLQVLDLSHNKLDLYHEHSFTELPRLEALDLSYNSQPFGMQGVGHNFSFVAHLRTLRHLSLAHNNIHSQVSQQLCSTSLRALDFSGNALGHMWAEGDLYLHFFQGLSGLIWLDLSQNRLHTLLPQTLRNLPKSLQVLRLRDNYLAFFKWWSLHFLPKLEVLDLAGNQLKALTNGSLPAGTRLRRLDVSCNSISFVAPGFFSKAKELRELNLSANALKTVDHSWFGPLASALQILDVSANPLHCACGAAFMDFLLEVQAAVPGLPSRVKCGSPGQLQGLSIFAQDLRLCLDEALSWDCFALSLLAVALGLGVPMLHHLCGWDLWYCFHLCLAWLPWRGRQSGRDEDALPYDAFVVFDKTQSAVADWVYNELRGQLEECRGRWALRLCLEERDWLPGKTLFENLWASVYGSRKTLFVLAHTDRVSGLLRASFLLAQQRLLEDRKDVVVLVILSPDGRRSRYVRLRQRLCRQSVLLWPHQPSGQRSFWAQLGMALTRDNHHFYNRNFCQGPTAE
# Experiment: TLR9 antagonist assay in human PBMCs (ODN2395, IFNα ELISA)
# Type: cell-based
# Settings: human PBMC, 0.25 μM ODN2395, IFNα readout
# Method: PBMCs were isolated from unpurified buffy coat from healthy human donors (Blood Research Components, LLC). For antagonist testing, cells were plated on 96-well U-bottom plates at 3×10^6 cells/ml. Antagonist compounds were added to cells in duplicate wells and titrated from 10 μM in 1:3 serial dilutions (8 antagonist concentrations tested in total). After approximately 30 minutes, cells were stimulated with agonist compound (see table 2 for agonist concentrations). After stimulation, cells were incubated overnight at 37° C. To increase the stability of the ssRNA, 3 μg/ml DOTAP (Roche) was added to ORN1075 agonist solutions. All dilutions were made in RPMI-1640 media (Sigma, cat.# R7388)+5% human male AB sera (Sigma, cat.# H4522)+1× Penicillin/Streptomycin solution (VWR, cat.#82026-730).
# TLR activity was measured in PBMCs and neutrophils by ELISA using cytokine readouts specific for the TLR of interest.
# IFNα was measured as a readout for TLR7 and TLR9 activity in PBMCs stimulated with either ORN1075, or ODN2395, respectively, using a Human Pan-IFNα ELISA kit (MABTech, cat.#3425-1H-20). PBMC supernatant was diluted 1:3 in PBS+0.05% tween-20+0.1% BSA. Absorbance at 450 nm was recorded using a Molecular Devices SpectraMax340PC plate reader. The IC50 for each antagonist was subsequently calculated following the method described below.
# Raw ELISA datasets for each 96-well plate, consisting of absorbance readings at […], were first imported in Microsoft Excel to calculate the average absorbance for each standard or antagonist concentration. The averaged data was then imported into SigmaPlot v.11.0 where a standard curve was calculated and used to extrapolate the relative concentration of TLR readout (TNFα, IFNα, etc.) produced. The dose-response curve of each antagonist was then plotted with SigmaPlot v.11.0 on a Log scale. Concentrations of TLR readout were converted to a percentage relative to the average maximum concentration for that ELISA plate in Microsoft Excel. The IC50 for each antagonist was then determined with the SigmaPlot regression wizard using a 4-parameter Hill equation. Each antagonist was tested in a minimum of 3 independent experiments and IC50 results were compiled and averaged using Microsoft Excel.
row,IC50,SMILES
1,0.054 µM,C[C@@H]1CN(CCNc2nc3nc(N4CCN(C)CC4)nc(NCCN4C[C@@H](C)O[C@@H](C)C4)c3nc2Cl)C[C@H](C)O1 [JB6143]
2,0.06 µM,COCCN1CCN(c2nc(NCCN3CCOCC3)c3nc(Cl)c(NCCN4CCOCC4)nc3n2)CC1 [JB6160]
3,0.326 µM,CCOc1nc2c(NCCN3CCCC3)nc(-c3ccccc3)nc2nc1N1CCN(C)CC1 [JB6131]
4,0.114 µM,CCOc1nc2c(NCCN3CCOCC3)nc(NCc3ccccc3)nc2nc1NCCN1CCOCC1 [JB6180]
5,8.68 µM,Clc1nc2c(NCCN3CCOCC3)nc(N3CCOCC3)nc2nc1NCCN1CCOCC1 [JB6147]
6,0.297 µM,CN1CCN(c2nc3nc(-c4ccccc4)nc(NCCN4CCOCC4)c3nc2OCCN2CCOCC2)CC1 [JB6116]
7,0.101 µM,CCCCNc1nc(NCCN2CCOCC2)c2nc(Cl)c(NCCN3CCOCC3)nc2n1 [JB6140]
8,0.305 µM,CN1CCN(c2nc(NCCN3CCOCC3)c3ncc(-c4ccccc4)nc3n2)CC1 [JB6059]
9,0.167 µM,Clc1nc2c(NCCN3CCOCC3)nc(NCc3ccccc3)nc2nc1NCCN1CCOCC1 [JB6172]
10,0.061 µM,CCCCNc1nc(NCCN2CCOCC2)c2nc(SCC)c(NCCN3CCOCC3)nc2n1 [JB6185]

row,SMILES,IC50
1,"CN1CCN(c2nc(NCCN3CCOCC3)c3nc(Cl)c(NCCN4CCOCC4)nc3n2)CC1 [JB6121, 6-chloro-2-(4-methylpiperazin-1-yl)-N^4,N^7-bis(2-morpholinoethyl)pteridine-4,7-diamine]",0.146 µM
